Laboratory results as given in USRE49850E1, “N-(pyridin-2-yl)-4-(thiazol-5-yl)pyrimidin-2-amine derivatives as therapeutic compounds” (AUCENTRA THERAPEUTICS PTY LTD, priority 2015, dated 2024).

Columns and labels:
[1] = target: CDK1B (Homo sapiens, UniProt P06493); assay: Kinase assay CDK1B (radiometric profiling service); type: biochemical; conditions: for Ki: apparent Ki calculated from Km (ATP) and IC50, read-out: CDK inhibition Ki CDK1B; for remaining activity at 10 µM: compound at 10 μM, read-out: % remaining enzymatic activity at 10 μM CDK1B
CDK1B, sequence (P06493 whole entry): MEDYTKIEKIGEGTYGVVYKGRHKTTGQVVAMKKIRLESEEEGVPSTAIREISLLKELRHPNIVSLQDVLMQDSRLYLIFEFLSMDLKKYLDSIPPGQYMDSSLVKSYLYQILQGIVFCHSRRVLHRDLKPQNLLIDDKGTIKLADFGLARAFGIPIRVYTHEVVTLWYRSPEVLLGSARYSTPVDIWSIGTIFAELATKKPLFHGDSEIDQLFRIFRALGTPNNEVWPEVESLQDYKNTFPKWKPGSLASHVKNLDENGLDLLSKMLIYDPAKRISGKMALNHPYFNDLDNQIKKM
CDK1B, sequence (P14635 whole entry partner): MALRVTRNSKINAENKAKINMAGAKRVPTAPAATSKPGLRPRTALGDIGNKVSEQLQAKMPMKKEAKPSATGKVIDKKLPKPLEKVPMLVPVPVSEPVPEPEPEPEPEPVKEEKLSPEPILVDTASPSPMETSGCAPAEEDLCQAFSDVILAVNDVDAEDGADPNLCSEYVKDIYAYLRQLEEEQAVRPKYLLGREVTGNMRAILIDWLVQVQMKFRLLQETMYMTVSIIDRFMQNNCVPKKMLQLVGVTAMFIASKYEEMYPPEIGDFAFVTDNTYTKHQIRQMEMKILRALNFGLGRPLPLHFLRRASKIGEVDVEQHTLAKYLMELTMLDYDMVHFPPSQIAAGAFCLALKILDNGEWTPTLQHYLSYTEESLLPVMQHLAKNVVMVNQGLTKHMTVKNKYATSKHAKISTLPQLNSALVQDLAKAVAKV
Protocol: (§1) Eurofins Pharma Discovery or Reaction Biology Corporation Kinase Profiler services were used to measure inhibition of CDKs and other kinases by radiometric assay. Inhibition of CDK4/D1, CDK6/D3 and CDK9/T1 were also determined in-house using ADP Glo Kinase assays (Promega Corporation, Madison, USA). Briefly, the kinase reaction for CDK4/D1 and CDK6/D3 was performed with kinase reaction buffer ([…] Tris base pH 7.5, 20 mM MgCl2, 0.4 mM DTT), 0.1 mg/ml BSA and RB-CTF substrate (retinoblastoma protein1 C-terminal fraction). For CDK9/CyclinT1, the kinase reaction was performed with standard assay buffer and Kinase Dilution Buffer and RBER-IRStide substrate. Serial dilutions of 1:3 were prepared for test compounds for 10 concentrations (from 10 μM to 0.5 nM). The kinase reactions were started by addition of ATP, incubated for 40 min at 37° C. and then stopped by adding 10 μL of ADP Glo reagent. After incubation at room temperature in the dark for 40 min, 20 μL of kinase detection reagent was added per well and incubated for 40 min. Luminescence was measured using an EnVision Multilabel plate reader (PerkinElmer, Buckinghamshire, UK). Positive and negative controls were perfonned in the presence and absence of CDK kinases, respectively. Half-maximal inhibition (IC50) values were calculated using a 4-parameter logistic non-linear regression model with Graphpad prism (Version 6.0). Apparent inhibition constants (Ki) values were calculated from Km (ATP) and IC50 values for the respective kinases.

[2] = tested on: MV4-11; assay: Cell viability assay (resazurin, leukemia cell line) MV4-11; type: cell-based, human; conditions: Homo sapiens, MV4-11, 72 h; read-out: Anti-proliferative activity GI50 MV4-11
Source text: (§2) Compounds from Example 1 were subjected to a standard MTT (3-(4,5-dimethylthiazol-2-yl)-2,5-diphenyltetrazolium bromide) and resazurin assays on solid tumour cell lines and leukemia cell lines, respectively, as previously reported (Wang S et al., J Med Chem 47:1662-1675, 2004 and Diab S. et al. CheMedChem 9:962-972, 2014).

[3] = target: CDK 2A (Homo sapiens, UniProt P24941); assay: Kinase assay CDK2A (radiometric profiling service); type: biochemical; conditions: for Ki: apparent Ki calculated from Km (ATP) and IC50, read-out: CDK inhibition Ki CDK 2A; for remaining activity at 10 µM: compound at 10 μM, read-out: % remaining enzymatic activity at 10 μM CDK 2A
Protocol: as §1

[4] = target: T1, CDK9T1 (Homo sapiens, UniProt P50750); assay: Kinase assay CDK9/T1 (radiometric or ADP Glo); type: biochemical; conditions: for Ki: apparent Ki calculated from Km (ATP) and IC50, read-out: CDK inhibition Ki CDK9T1; for remaining activity at 10 µM: compound at 10 μM, read-out: % remaining enzymatic activity at 10 μM CDK9T1
T1 construct: purchased Eurofins Pharma Discovery or Reaction Biology Corporation (service)
T1 sequence (P50750 whole entry): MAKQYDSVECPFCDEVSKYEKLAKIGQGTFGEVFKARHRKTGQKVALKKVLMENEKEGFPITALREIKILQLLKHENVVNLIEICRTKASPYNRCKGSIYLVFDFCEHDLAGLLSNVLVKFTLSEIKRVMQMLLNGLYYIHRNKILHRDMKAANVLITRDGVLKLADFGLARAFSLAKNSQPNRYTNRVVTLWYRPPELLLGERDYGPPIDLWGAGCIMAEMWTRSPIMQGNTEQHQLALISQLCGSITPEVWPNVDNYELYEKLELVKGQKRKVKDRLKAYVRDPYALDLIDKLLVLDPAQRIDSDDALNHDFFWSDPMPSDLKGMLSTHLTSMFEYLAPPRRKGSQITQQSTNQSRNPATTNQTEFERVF
T1 sequence (O60563 whole entry partner): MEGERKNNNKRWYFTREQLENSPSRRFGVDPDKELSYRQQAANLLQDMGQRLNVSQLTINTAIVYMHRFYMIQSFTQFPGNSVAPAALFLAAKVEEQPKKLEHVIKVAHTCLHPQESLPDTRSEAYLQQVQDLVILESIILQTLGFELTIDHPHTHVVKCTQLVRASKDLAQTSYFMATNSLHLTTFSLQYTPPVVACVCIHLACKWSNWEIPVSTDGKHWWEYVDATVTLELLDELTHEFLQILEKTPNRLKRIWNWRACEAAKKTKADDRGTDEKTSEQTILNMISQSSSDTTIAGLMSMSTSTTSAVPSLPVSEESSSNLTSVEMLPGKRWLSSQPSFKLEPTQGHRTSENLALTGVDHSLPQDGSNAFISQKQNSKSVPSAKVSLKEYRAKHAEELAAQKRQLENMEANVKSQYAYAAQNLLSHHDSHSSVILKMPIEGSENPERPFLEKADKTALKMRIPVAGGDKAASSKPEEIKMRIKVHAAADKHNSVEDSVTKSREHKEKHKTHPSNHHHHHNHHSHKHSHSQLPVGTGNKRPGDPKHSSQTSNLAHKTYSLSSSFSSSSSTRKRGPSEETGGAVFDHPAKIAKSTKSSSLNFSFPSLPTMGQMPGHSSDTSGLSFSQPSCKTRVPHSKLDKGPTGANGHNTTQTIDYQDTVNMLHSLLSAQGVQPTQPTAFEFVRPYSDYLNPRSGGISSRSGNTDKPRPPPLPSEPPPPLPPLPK
Protocol: as §1

[5] = target: T2, CDK4D1 (Homo sapiens, UniProt P11802); assay: Kinase assay CDK4/D1 (radiometric or ADP Glo); type: biochemical; conditions: apparent Ki calculated from Km (ATP) and IC50; read-out: CDK inhibition Ki CDK4D1
T2 construct: purchased Eurofins Pharma Discovery or Reaction Biology Corporation (service)
T2 sequence (P11802 whole entry): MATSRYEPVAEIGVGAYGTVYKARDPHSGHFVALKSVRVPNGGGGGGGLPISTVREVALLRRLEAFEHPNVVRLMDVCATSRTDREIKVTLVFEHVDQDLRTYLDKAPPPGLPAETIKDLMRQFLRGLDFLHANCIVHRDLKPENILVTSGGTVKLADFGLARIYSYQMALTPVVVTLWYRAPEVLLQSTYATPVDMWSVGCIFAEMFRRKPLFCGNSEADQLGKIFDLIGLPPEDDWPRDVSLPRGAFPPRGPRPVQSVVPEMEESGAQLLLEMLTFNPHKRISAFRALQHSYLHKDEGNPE
T2 sequence (P24385 whole entry partner): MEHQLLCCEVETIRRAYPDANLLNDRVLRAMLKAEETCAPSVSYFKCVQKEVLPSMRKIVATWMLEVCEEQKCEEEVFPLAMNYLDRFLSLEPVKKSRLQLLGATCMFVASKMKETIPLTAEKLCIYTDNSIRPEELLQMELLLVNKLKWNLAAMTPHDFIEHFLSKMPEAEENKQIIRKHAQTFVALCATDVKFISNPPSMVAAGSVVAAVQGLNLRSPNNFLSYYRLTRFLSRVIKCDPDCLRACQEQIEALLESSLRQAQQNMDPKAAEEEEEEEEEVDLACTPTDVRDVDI
Protocol: as §1

[6] = target: CDK7H (Homo sapiens, UniProt P50613); assay: Kinase assay CDK7H (radiometric profiling service); type: biochemical; conditions: for Ki: apparent Ki calculated from Km (ATP) and IC50, read-out: CDK inhibition Ki CDK7H; for remaining activity at 10 µM: compound at 10 μM, read-out: % remaining enzymatic activity at 10 μM CDK7H
CDK7H, sequence (P50613 whole entry): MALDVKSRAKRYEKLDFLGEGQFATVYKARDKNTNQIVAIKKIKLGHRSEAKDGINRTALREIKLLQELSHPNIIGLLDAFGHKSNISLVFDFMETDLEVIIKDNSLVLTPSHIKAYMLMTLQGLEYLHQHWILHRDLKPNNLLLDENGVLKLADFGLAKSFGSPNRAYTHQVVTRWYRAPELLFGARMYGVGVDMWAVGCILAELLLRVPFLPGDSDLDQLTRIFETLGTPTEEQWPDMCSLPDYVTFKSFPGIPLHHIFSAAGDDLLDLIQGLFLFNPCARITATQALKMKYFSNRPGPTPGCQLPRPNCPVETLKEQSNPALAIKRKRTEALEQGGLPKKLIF
CDK7H, sequence (P51946 whole entry partner): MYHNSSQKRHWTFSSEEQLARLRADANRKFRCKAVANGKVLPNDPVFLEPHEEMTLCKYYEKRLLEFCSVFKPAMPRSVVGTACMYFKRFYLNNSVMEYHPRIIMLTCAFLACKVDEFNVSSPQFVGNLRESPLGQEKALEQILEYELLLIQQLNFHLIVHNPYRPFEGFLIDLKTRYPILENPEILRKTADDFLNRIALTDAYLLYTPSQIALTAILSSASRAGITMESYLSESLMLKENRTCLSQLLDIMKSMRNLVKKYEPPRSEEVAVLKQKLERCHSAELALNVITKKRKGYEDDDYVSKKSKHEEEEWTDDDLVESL
CDK7H, sequence (P51948 whole entry partner): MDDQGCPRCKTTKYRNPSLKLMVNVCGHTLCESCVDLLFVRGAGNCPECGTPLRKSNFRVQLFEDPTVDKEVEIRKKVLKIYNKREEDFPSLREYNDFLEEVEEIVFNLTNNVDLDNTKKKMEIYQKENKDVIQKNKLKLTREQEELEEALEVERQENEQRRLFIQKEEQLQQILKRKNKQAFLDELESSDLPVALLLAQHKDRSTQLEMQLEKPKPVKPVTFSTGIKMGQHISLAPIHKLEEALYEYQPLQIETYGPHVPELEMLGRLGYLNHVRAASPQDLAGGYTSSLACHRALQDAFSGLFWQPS
Protocol: as §1

[7] = tested on: MDA-MB-453; assay: Cell viability assay (MTT, solid tumour cell line) MDA-MB-453; type: cell-based, human; conditions: Homo sapiens, MDA-MB-453, 72 h; read-out: Anti-proliferative activity GI50 MDA-MB-453
Source text: as §2

[8] = target: T3, CDK6D3 (Homo sapiens, UniProt Q00534); assay: Kinase assay CDK6/D3 (radiometric or ADP Glo); type: biochemical; conditions: for Ki: apparent Ki calculated from Km (ATP) and IC50, read-out: CDK inhibition Ki CDK6D3; for remaining activity at 10 µM: compound at 10 μM, read-out: % remaining enzymatic activity at 10 μM CDK6D3
T3 construct: purchased Eurofins Pharma Discovery or Reaction Biology Corporation (service)
T3 sequence (Q00534 whole entry): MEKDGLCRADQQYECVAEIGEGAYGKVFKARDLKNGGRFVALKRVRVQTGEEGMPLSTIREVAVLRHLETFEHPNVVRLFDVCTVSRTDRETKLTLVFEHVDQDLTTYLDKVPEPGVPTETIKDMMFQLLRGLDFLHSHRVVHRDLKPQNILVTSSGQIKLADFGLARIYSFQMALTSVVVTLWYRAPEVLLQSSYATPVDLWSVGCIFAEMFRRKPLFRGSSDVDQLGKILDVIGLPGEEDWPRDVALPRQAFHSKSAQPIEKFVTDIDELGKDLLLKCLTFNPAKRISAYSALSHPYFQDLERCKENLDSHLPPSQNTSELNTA
T3 sequence (P30281 whole entry partner): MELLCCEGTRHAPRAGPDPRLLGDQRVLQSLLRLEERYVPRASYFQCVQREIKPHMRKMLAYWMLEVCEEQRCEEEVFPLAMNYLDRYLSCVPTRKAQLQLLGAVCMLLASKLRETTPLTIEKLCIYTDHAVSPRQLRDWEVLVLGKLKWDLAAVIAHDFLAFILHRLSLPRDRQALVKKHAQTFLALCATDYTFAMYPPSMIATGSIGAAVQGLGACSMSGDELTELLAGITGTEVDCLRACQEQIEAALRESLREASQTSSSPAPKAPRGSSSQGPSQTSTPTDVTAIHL
Protocol: as §1

Structure (SMILES)	Ki [1]	GI50 [2]	Ki [3]	Ki [4]	Ki [5]	Ki [6]	GI50 [7]	Ki [8]	remaining activity at 10 µM [1]	remaining activity at 10 µM [3]	remaining activity at 10 µM [4]	remaining activity at 10 µM [6]	remaining activity at 10 µM [8]
CNc1nc(C)c(-c2ccnc(Nc3ccc(N4CCNCC4)cn3)n2)s1 [Compound 26, N,4-dimethyl-5-(2-((5-(piperazin-1-yl)pyridin-2-yl)amino)pyrimidin-4-yl)thiazol-2-amine]	> 5000 nM	259 ± 241 nM	889 nM	2850 nM	6 nM	> 5000 nM	–	114 nM	–	–	–	–	–
CNc1nc(C)c(-c2ccnc(Nc3ccc(N4CCOCC4)cn3)n2)s1 [Compound 36, N,4-dimethyl-5-(2-((5-morpholinopyridin-2-yl)amino)pyrimidin-4-yl)thiazol-2-amine]	> 5000 nM	643 ± 18 nM	459 nM	> 5000 nM	20 nM	> 5000 nM	–	610 nM	–	–	–	–	–
Cc1nc(NC2CCCC2)sc1-c1nc(Nc2ccc(N3CCOCC3)cn2)ncc1F [Compound 72]	–	–	–	> 5000 nM	–	> 5000 nM	1440 ± 304 nM	–	–	–	–	–	–
Cc1nc(N(C)C2CCCC2)sc1-c1ccnc(Nc2ccc(N3CCNCC3)cn2)n1 [Compound 85, N-cyclopentyl-N,4-dimethyl-5-(2-((5-(piperazin-1-yl)pyridin-2-yl)amino)pyrimidin-4-yl)thiazol-2-amine]	1390 nM	285 ± 41 nM	174 nM	1800 nM	2 nM	–	402 ± 6 nM	10 nM	–	–	–	–	–
Cc1nc(N(C2CCCC2)C2CCCC2)sc1-c1ccnc(Nc2ccc(N3CCNCC3)cn2)n1 [Compound 88, N,N-dicyclopentyl-4-methyl-5-(2-((5-(piperazin-1-yl)pyridin-2-yl)amino)pyrimidin-4-yl)thiazol-2-amine]	> 15000 nM	714 ± 179 nM	> 5000 nM	> 5000 nM	–	> 5000 nM	373 ± 117 nM	–	–	–	–	–	–
Cc1nc(Nc2ccccc2)sc1-c1ccnc(Nc2ccc(N3CCNCC3)cn2)n1 [Compound 89, 4-Methyl-N-phenyl-5-(2-((5-(piperazin-1-yl)pyridin-2-yl)amino)pyrimidin-4-yl)thiazol-2-amine]	2040 nM	56 ± 11 nM	> 5000 nM	436 nM	5 nM	–	279 ± 44 nM	66 nM	–	–	–	–	–
Cc1c(-c2ccnc(Nc3ccc(N4CCNCC4)cn3)n2)sc(=O)n1C1CCCC1 [Compound 96, 3-cyclopentyl-4-methyl-5-(2-((5-(piperazin-1-yl)pyridin-2-yl)amino)pyrimidin-4-yl)thiazol-2(3H)-one]	–	792 ± 74 nM	–	–	–	–	2860 ± 988 nM	–	63%	61%	15%	22%	11%
Cc1[nH]c(=O)sc1-c1ccnc(Nc2ccc(N3CCNCC3)cn2)n1 [Compound 97, 4-methyl-5-(2-((5-(piperazin-1-yl)pyridin-2-yl)amino)pyrimidin-4-yl)thiazol-2(3H)-one]	–	1510 ± 802 nM	–	–	–	–	> 10000 nM	–	58%	54%	3%	24%	12%

Results, then the compound that gave them:

Ki [1]	GI50 [2]	Ki [3]	Ki [4]	Ki [5]	Ki [6]	GI50 [7]	Ki [8]	remaining activity at 10 µM [1]	remaining activity at 10 µM [3]	remaining activity at 10 µM [4]	remaining activity at 10 µM [6]	remaining activity at 10 µM [8]	Structure (SMILES)
> 5000 nM	5370 ± 1680 nM	> 5000 nM	> 5000 nM	290 nM	> 5000 nM	> 10000 nM	–	–	–	–	–	–	CCc1nc(C)c(-c2ccnc(Nc3ccc(N4CCN(C(C)=O)CC4)cn3)n2)s1 [Compound 10, 1-(4-(6-((4-(2-ethyl-4-methylthiazol-5-yl)pyrimidin-2-yl)amino)pyridin-3-yl)piperazin-1-yl)ethan-1-one]
> 5000 nM	> 10000 nM	> 5000 nM	> 5000 nM	250 nM	> 5000 nM	> 10000 nM	–	–	–	–	–	–	CCc1nc(C)c(-c2nc(Nc3ccc(N4CCN(C(C)=O)CC4)cn3)ncc2Cl)s1 [Compound 11, 1-(4-(6-((5-chloro-4-(2-ethyl-4-methylthiazol-5-yl)pyrimidin-2-yl)amino)pyridin-3-yl)piperazin-1-yl)ethan-1-one]
> 5000 nM	5290 ± 811 nM	2340 nM	> 5000 nM	180 nM	> 5000 nM	> 10000 nM	–	–	–	–	–	–	CCc1nc(C)c(-c2ccnc(Nc3ccc(N4CCOCC4)cn3)n2)s1 [Compound 12, 4-(2-Ethyl-4-methylthiazol-5-yl)-N-(5-morpholinopyridin-2-yl)pyrimidin-2-amine]
–	14 ± 6 nM	–	–	1 nM	–	–	40 nM	56%	34%	11%	39%	–	CNc1nc(C)c(-c2nc(Nc3ccc(N4CCNCC4)cn3)ncc2C#N)s1 [Compound 27, 4-(4-methyl-2-(methylamino)thiazol-5-yl)-2-((5-(piperazin-1-yl)pyridin-2-yl)amino)pyrimidine-5-carbonitrile]
–	56 ± 4 nM	–	–	4 nM	–	–	32 nM	66%	36%	9%	43%	–	CNc1nc(C)c(-c2nc(Nc3ccc(N4CCN(C)CC4)cn3)ncc2C#N)s1 [Compound 30, 4-(4-methyl-2-(methylamino)thiazol-5-yl)-2-((5-(4-methylpiperazin-1-yl)pyridin-2-yl)amino)pyrimidine-5-carbonitrile]
> 5000 nM	465 ± 129 nM	201 nM	> 5000 nM	4 nM	> 5000 nM	–	64 nM	–	–	–	–	–	CNc1nc(C)c(-c2nc(Nc3ccc(N4CCOCC4)cn3)ncc2C#N)s1 [Compound 37, 4-(4-methyl-2-(methylamino)thiazol-5-yl)-2-((5-morpholinopyridin-2-yl)amino)pyrimidine-5-carbonitrile]
> 5000 nM	45900 ± 2520 nM	> 5000 nM	> 5000 nM	169 nM	> 5000 nM	–	2710 nM	–	–	–	–	–	CNc1nc(C)c(-c2ccnc(Nc3ccc(N4CCN(Cc5ccccc5)CC4)cn3)n2)s1 [Compound 39, 5-(2-((5-(4-benzylpiperazin-1-yl)pyridin-2-yl)amino)pyrimidin-4-yl)-N,4-dimethylthiazol-2-amine]
> 5000 nM	4680 ± 298 nM	69 nM	> 5000 nM	44 nM	> 5000 nM	5360 ± 501 nM	–	–	–	–	–	–	Cc1nc(N(C)C)sc1-c1nc(Nc2ccc(N3CCOCC3)cn2)ncc1F [Compound 50, 5-(5-fluoro-2-((5-morpholinopyridin-2-yl)amino)pyrimidin-4-yl)-N,N,4-trimethylthiazol-2-amine]
3020 nM	9 ± 1 nM	–	–	–	780 nM	287 ± 70 nM	–	–	–	–	–	–	CCN1CCN(c2ccc(Nc3nccc(-c4sc(NC5CCCC5)nc4C)n3)nc2)CC1 [Compound 66, N-cyclopentyl-5-(2-((5-(4-ethylpiperazin-1-yl)pyridin-2-yl)amino)pyrimidin-4-yl)-4-methylthiazol-2-amine]
–	2240 ± 43 nM	–	–	–	–	> 10000 nM	–	55%	40%	17%	68%	25%	CC(=O)N1CCN(c2ccc(Nc3nccc(-c4sc(=O)[nH]c4C)n3)nc2)CC1 [Compound 95, 5-(2-((5-(4-acetylpiperazin-1-yl)pyridin-2-yl)amino)pyrimidin-4-yl)-4-methylthiazol-2(3H)-one]
